In patent US9533985B2, “Sulfonamide derivative and medicinal use thereof” (EA Pharma Co., Ltd., priority 2012, dated 2017):

What follows are molecules tested against α4β7 integrin (Homo sapiens (Human), UniProt P13612+P26010) (assay: MAdCAM-1/α4β7 integrin binding inhibitory activity evaluation test in the presence of serum (2)). Settings: RPMI-8866 cells binding to mouse MAdCAM-1/Fc, same manner as Test (3), read-out: α4β7 Rank of activity with serum added.
Format: cell-based
Experimental: The ability of test substances to inhibit the binding of a human B cell line, RPMI-8866, which is known to express α4β7 integrin, to MAdCAM-1 was measured.
To 96-well microtiter plates, recombinant mouse MAdCAM-1/Fc (R&D systems) solution (1 μg/mL) diluted with buffer A (carbonate buffer, pH 9.6) was added at 50 μL/well, followed by incubation at 4° C. overnight. After washing once with PBS, Block Ace (Snow Brand Milk Products Company, Limited) was added at 150 μL/well, followed by incubation at room temperature for 2 hours. After removal, washing was conducted once with PBS.
100 μL of each test substance diluted with a binding buffer (DMEM containing 40 mM HEPES, 0.2% BSA, and 4 mM MnCl2) to various concentrations and 100 μL of RPMI-8866 cells (2×10^6 cell/mL) were added to plates coated with MAdCAM-1/Fc (5×10^5 cells/well) with human serum being contained at a final concentration of 50%, followed by incubation at 30° C. for 15 minutes to 60 minutes. After the cells were bound to each well, unbound cells were removed by washing with PBS. To the plates, buffer C (PBS containing 1.5% Triton X-100) was added at 50 μL/well to lyse the bound RPMI-8866 cells. To 30 μL of the cell lysate, 30 μL of Substrate Buffer (Promega, CytoTox 96 Non-Radioactive Cytotoxicity Assay) was added, and the reaction was allowed to proceed at room temperature in a dark place for 30 minutes. To each well, 30 μL of Stop Solution (Promega, CytoTox 96 Non-Radioactive Cytotoxicity Assay) was added, and the absorbance at 490 nm was measured by using a plate reader. Here, by the obtained absorbance, the activity of the lactate dehydrogenase (LDH) dissolved into the supernatant of each well was detected. In other words, the absorbance was proportional to the number of the RPMI-8866 cells bound to MAdCAM-1 and remaining on the plate. The test was duplicated. The binding ratios of the cells at various concentrations were determined, with the absorbance of a well containing no test substance taken as 100%. Then, the concentration IC50, at which 50% binding inhibition was achieved, was calculated.
The MAdCAM-1/α4β7 integrin binding inhibitory activity in the presence of serum was measured in the same manner as in Test (3) described above. […] The VCAM-1/α4β1 integrin binding inhibitory activity evaluation test and the MAdCAM-1/α4β7 integrin binding inhibitory activity evaluation test were carried out according to the methods described in Tests (1) and (2) described above.

Sequence of α4β7 integrin (P13612 34-1032): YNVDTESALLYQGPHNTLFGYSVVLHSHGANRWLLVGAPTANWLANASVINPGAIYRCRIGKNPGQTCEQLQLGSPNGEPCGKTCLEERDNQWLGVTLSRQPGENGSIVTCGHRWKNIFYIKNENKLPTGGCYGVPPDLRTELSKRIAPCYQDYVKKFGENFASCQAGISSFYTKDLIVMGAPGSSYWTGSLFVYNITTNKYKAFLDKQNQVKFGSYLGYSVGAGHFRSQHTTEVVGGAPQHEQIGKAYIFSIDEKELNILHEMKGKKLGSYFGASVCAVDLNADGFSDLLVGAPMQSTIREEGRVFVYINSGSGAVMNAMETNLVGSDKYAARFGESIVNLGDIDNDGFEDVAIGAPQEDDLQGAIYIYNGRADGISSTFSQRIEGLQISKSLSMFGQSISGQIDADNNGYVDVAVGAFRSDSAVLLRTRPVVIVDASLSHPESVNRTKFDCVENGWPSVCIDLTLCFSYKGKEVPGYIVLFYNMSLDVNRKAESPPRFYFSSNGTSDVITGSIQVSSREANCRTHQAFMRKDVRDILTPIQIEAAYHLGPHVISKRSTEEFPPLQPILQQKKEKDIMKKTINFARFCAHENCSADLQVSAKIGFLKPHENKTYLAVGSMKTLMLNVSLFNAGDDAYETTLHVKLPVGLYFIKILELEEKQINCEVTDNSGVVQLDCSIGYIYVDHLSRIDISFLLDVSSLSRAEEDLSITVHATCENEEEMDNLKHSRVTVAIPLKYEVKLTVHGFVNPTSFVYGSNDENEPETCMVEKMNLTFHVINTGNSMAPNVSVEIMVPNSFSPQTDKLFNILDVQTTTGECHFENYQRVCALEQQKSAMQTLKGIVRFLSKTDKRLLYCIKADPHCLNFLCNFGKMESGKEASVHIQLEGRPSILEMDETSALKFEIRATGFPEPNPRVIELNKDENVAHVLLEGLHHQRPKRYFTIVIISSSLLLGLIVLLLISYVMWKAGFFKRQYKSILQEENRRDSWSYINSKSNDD
Sequence of α4β7 integrin (P26010 20-798): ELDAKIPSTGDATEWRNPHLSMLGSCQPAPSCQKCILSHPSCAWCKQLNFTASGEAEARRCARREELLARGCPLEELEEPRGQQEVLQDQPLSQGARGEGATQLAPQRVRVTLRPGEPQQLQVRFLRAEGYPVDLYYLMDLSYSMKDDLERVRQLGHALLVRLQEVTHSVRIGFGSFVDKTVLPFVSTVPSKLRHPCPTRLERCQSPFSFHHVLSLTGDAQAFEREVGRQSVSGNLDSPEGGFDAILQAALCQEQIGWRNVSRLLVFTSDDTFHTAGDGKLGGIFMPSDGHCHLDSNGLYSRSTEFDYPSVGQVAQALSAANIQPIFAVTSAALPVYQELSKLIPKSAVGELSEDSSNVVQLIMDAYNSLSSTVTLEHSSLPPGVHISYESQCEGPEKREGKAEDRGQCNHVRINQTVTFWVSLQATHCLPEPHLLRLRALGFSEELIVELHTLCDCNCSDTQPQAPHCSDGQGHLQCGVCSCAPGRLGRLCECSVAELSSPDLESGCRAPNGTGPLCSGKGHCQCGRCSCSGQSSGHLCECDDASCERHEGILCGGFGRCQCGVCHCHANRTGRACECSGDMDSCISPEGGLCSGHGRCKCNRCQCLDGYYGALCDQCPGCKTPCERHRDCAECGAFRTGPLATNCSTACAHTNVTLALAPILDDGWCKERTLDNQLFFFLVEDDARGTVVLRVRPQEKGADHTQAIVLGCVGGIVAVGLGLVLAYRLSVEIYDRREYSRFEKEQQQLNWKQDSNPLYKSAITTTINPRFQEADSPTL

IC50 [nM]	Structure (SMILES)
≤ 10	Cn1ccc(=O)n(-c2ccc(C[C@H](NC(=O)c3c(F)cc(NS(=O)(=O)c4ccc(C(=O)NCC5CCOCC5)cc4)cc3F)C(=O)O)cc2)c1=O [Example 172, N-(2,6-Difluoro-4-{[(4-{[(tetrahydro-2H-pyran-4-yl-methyl)amino]carbonyl}phenyl)sulfonyl]amino}benzoyl)-4-(3-methyl-2,6-dioxo-3,6-dihydropyrimidin-1(2H)-yl)-L-phenylalanine]
50 to 200	CCc1ncc(-c2ccc(S(=O)(=O)Nc3cc(F)c(C(=O)N[C@@H](Cc4ccc(-n5c(=O)c6ccncc6n(C)c5=O)cn4)C(=O)O)cc3F)cc2)cn1 [Example 229, N-[4-({[4-(2-Ethylpyrimidin-5-yl)phenyl]sulfonyl}amino)-2,5-difluorobenzoyl]-3-[5-(1-methyl-2,4-dioxo-1,4-dihydropyrido[3,4-d]pyrimidin-3(2H)-yl)pyridin-2-yl]-L-alanine]
≤ 10	CCNC(=O)c1ccc(S(=O)(=O)Nc2cc(F)c(C(=O)N[C@@H](Cc3ccc(-n4c(=O)c5c(ncn5C)n(C)c4=O)cc3)C(=O)O)c(F)c2)cc1 [Example 152, 4-(3,7-Dimethyl-2,6-dioxo-2,3,6,7-tetrahydro-1H-purin-1-yl)-N-{4-[({4-[(ethylamino)carbonyl]phenyl}sulfonyl)amino]-2,6-difluorobenzoyl}-L-phenylalanine]
10 to 50	Cn1c(=O)n(-c2ccc(C[C@H](NC(=O)c3ccc(NS(=O)(=O)c4ccco4)cc3F)C(=O)O)nc2)c(=O)c2ccncc21 [Example 139, N-{2-Fluoro-4-[(2-furylsulfonyl)amino]benzoyl}-3-[5-(1-methyl-2,4-dioxo-1,4-dihydropyrido[3,4-d]pyrimidin-3(2H)-yl)pyridin-2-yl]-L-alanine]
≤ 10	CCOc1cc(-c2ncccn2)ccc1S(=O)(=O)Nc1cc(F)c(C(=O)N[C@@H](Cc2ccc(-n3c(=O)c4ccncc4n(C)c3=O)cn2)C(=O)O)c(F)c1 [Example 231, N-(4-{[(2-Ethoxy-4-pyrimidin-2-ylphenyl)sulfonyl]amino}-2,6-difluorobenzoyl)-3-[5-(1-methyl-2,4-dioxo-1,4-dihydropyrido[3,4-d]pyrimidin-3(2H)-yl)pyridin-2-yl]-L-alanine]
10 to 50	Cc1cn(C)c(=O)n(-c2ccc(C[C@H](NC(=O)c3ccc(NS(=O)(=O)c4ccc(C(=O)NC(C)(C)C)nc4)cc3F)C(=O)O)cc2)c1=O [Example 175, N-{4-[({6-[(tert-Butylamino)carbonyl]pyridin-3-yl}sulfonyl)amino]-2-fluorobenzoyl}-4-(3,5-dimethyl-2,6-dioxo-3,6-dihydropyrimidin-1(2H)-yl)-L-phenylalanine]
10 to 50	Cn1c(=O)n(-c2ccc(C[C@H](NC(=O)c3cc(F)c(NS(=O)(=O)c4ccc(-c5cncnc5)cc4)cc3F)C(=O)O)nc2)c(=O)c2ccncc21 [Example 215, N-(2,5-Difluoro-4-{[(4-pyrimidin-5-ylphenyl)sulfonyl]amino}benzoyl)-3-[5-(1-methyl-2,4-dioxo-1,4-dihydropyrido[3,4-d]pyrimidin-3(2H)-yl)pyridin-2-yl]-L-alanine]
≤ 10	Cn1c(=O)n(-c2ccc(C[C@H](NC(=O)c3c(F)cc(NS(=O)(=O)c4ccc(C(=O)NC(C)(C)C)cc4)cc3F)C(=O)O)cc2)c(=O)c2ccncc21 [Example 168, N-{4-[({4-[(tert-Butylamino)carbonyl]phenyl}sulfonyl)amino]-2,6-difluorobenzoyl}-4-(1-methyl-2,4-dioxo-1,4-dihydropyrido[3,4-d]pyrimidin-3(2H)-yl)-L-phenylalanine]
≤ 10	Cc1cc(CNC(C)(C)C)ccc1S(=O)(=O)Nc1ccc(C(=O)N[C@@H](Cc2ccc(-n3c(=O)c4ccncc4n(C)c3=O)cc2)C(=O)O)c(F)c1 [Example 180, N-{4-[({4-[(tert-Butylamino)methyl]-2-methylphenyl}sulfonyl)amino]-2-fluorobenzoyl}-4-(1-methyl-2,4-dioxo-1,4-dihydropyrido[3,4-d]pyrimidin-3(2H)-yl)-L-phenylalanine]
10 to 50	Cn1c(=O)n(-c2ccc(C[C@H](NC(=O)c3ccc(NS(=O)(=O)c4ccc(-c5cncnc5)cn4)cc3F)C(=O)O)cc2)c(=O)c2ccncc21 [Example 163, N-(2-Fluoro-4-{[(5-pyrimidin-5-yl-pyridin-2-yl)sulfonyl]amino}benzoyl)-4-(1-methyl-2,4-dioxo-1,4-dihydropyrido[3,4-d]pyrimidin-3(2H)-yl)-L-phenylalanine]
10 to 50	Cn1ccc(=O)n(-c2ccc(C[C@H](NC(=O)c3c(F)cc(NS(=O)(=O)c4ccc(-n5cccc5)cn4)cc3F)C(=O)O)cc2)c1=O [Example 162, N-[2,6-Difluoro-4-({[5-(1H-pyrrol-1-yl)pyridin-2-yl]sulfonyl}amino)benzoyl]-4-(3-methyl-2,6-dioxo-3,6-dihydropyrimidin-1(2H)-yl)-L-phenylalanine]
10 to 50	Cn1c(=O)n(-c2ccc(C[C@H](NC(=O)c3cc(F)c(NS(=O)(=O)c4ccco4)cc3F)C(=O)O)nc2)c(=O)c2ccncc21 [Example 140, N-{2,5-Difluoro-4-[(2-furylsulfonyl)amino]benzoyl}-3-[5-(1-methyl-2,4-dioxo-1,4-dihydropyrido[3,4-d]pyrimidin-3(2H)-yl)pyridin-2-yl]-L-alanine]
≤ 10	CCC(CC)NC(=O)c1ccc(S(=O)(=O)Nc2cc(F)c(C(=O)N[C@@H](Cc3ccc(-n4c(=O)ccn(C)c4=O)cc3)C(=O)O)c(F)c2)cc1 [Example 170, N-(4-{[(4-{[(1-Ethylpropyl)amino]carbonyl}phenyl)sulfonyl]amino}-2,6-difluorobenzoyl)-4-(3-methyl-2,6-dioxo-3,6-dihydropyrimidin-1(2H)-yl)-L-phenylalanine]
10 to 50	Cn1c(=O)n(-c2ccc(C[C@H](NC(=O)c3cc(F)c(NS(=O)(=O)c4ccc(-n5cncn5)cc4)cc3F)C(=O)O)cc2)c(=O)c2ccncc21 [Example 225, N-[2,5-Difluoro-4-({[4-(1H-1,2,4-triazol-1-yl)phenyl]sulfonyl}amino)benzoyl]-4-(1-methyl-2,4-dioxo-1,4-dihydropyrido[3,4-d]pyrimidin-3(2H)-yl)-L-phenylalanine]
10 to 50	Cn1c(=O)n(-c2ccc(C[C@H](NC(=O)c3c(F)cc(NS(=O)(=O)c4ccc(C(=O)NC5CCCC5)cc4)cc3F)C(=O)O)cc2)c(=O)c2ccncc21 [Example 166, N-{4-[({4-[(Cyclopentylamino)carbonyl]phenyl}sulfonyl)amino]-2,6-difluorobenzoyl}-4-(1-methyl-2,4-dioxo-1,4-dihydropyrido[3,4-d]pyrimidin-3(2H)-yl)-L-phenylalanine]
10 to 50	Cn1ccc(=O)n(-c2ccc(C[C@H](NC(=O)c3c(F)cc(NS(=O)(=O)c4ccc(C(=O)NCC5CC5)cc4)cc3F)C(=O)O)cc2)c1=O [Example 157, N-(4-{[(4-{[(Cyclopropylmethyl)amino]carbonyl}phenyl)sulfonyl]amino}-2,6-difluorobenzoyl)-4-(3-methyl-2,6-dioxo-3,6-dihydropyrimidin-1(2H)-yl)-L-phenylalanine]
10 to 50	Cn1ccc(=O)n(-c2ccc(C[C@H](NC(=O)c3c(F)cc(NS(=O)(=O)c4ccc(C(=O)NC5CCCCC5)cc4)cc3F)C(=O)O)cc2)c1=O [Example 169, N-{4-[({4-[(Cyclohexylamino)carbonyl]phenyl}sulfonyl)amino]-2,6-difluorobenzoyl}-4-(3-methyl-2,6-dioxo-3,6-dihydropyrimidin-1(2H)-yl)-L-phenylalanine]
